Data set [1] deals with A549 cells. As to the kind of experiment: Cell viability (MTT) assay, A549. The format is cell-based, human. As to conditions: 72 h. The method, then: (§1) The antiproliferative activity of the synthesized compounds was tested in cell viability assays optimally set up for various cancer cell lines (results are depicted in Table 2, n = 3, average IC50 (μM) ± SD).
(§2) Cells were plated at a density of 5 × 10^3 cells per well on 96-well plates. After 24 h of incubation (37 °C, 5% CO2), the cell medium was removed, and compounds were added at selected concentrations (0.1–100 μM), followed by incubation for 72 h. Control cells were treated with 0.4% DMSO medium to match the conditions in the wells where drugs were added. After 72 h, the medium was removed, and the 3-(4,5-dimethylthiazol-2-yl)-2,5-diphenyltetrazolium bromide (MTT) solution (0.3 mg/mL in PBS) was added to cells for 3 h under no light conditions. The MTT solution was removed, and the formazan crystals were dissolved in 100 μL of DMSO. The optical density was measured at 570 nm with a reference wavelength of 690 nm using an absorbance microplate reader (SpectraMax 190, Molecular Devices, Sunnyvale, CA, USA). The half-maximal inhibitory concentration (IC50) was calculated based on a four-parameter logistic equation, generating a cell viability curve, using GraphPad Prism 6.01 (GraphPad Software, Inc.). […] The resulting absorbance values were used instead of IC50 calculation. […]

Data set [2] concerns various cancer cell lines. As to the kind of experiment: Cell viability (MTT) assay, cell line not singled out. In kind it is cell-based. The following applies: Homo sapiens, 72 h, summary over cancer cell lines (breast and prostate), read-out: IC50 (antiproliferative activity). As for the experimental part: as §1, §2
For data set [3], the system named is SKBR3 cells. As to the kind of experiment: Cell viability (MTT) assay, SKBR3. The format is cell-based, human. The following applies: Homo sapiens, SK-BR-3, 72 h, read-out: IC50 (antiproliferative effect). As for the experimental part: as §1
Cells were plated at a density of 5 × 10^3 cells per well on 96-well plates. After 24 h of incubation (37 °C, 5% CO2), the cell medium was removed, and compounds were added at selected concentrations (0.1–100 μM), followed by incubation for 72 h. Control cells were treated with 0.4% DMSO medium to match the conditions in the wells where drugs were added. After 72 h, the medium was removed, and the 3-(4,5-dimethylthiazol-2-yl)-2,5-diphenyltetrazolium bromide (MTT) solution (0.3 mg/mL in PBS) was added to cells for 3 h under no light conditions. The MTT solution was removed, and the formazan crystals were dissolved in 100 μL of DMSO. The optical density was measured at 570 nm with a reference wavelength of 690 nm using an absorbance microplate reader (SpectraMax 190, Molecular Devices, Sunnyvale, CA, USA). The half-maximal inhibitory concentration (IC50) was calculated based on a four-parameter logistic equation, generating a cell viability curve, using GraphPad Prism 6.01 (GraphPad Software, Inc.). Two concentrations of an established drug, Docetaxel (100 nM and 1 nM), were used in each experiment as a positive control. The resulting absorbance values were used instead of IC50 calculation. Each point was the result of three independent experiments performed in triplicate.

In data set [4] the test system is A549 cells. As to the kind of experiment: Cell uptake / intracellular concentration by LC-MS/MS, A549. In kind it is in vitro ADME, human. The following applies: A549, 24 h incubation with 10 μM. As for the experimental part: Therefore, in order to better comprehend the observed activities of our degraders, following incubation of each compound with cells, the intracellular concentrations of the synthesized derivatives were evaluated in different cancer cell lines, as described previously.[28],[29] SKBR3, PC3, or A549 cells were incubated with PROTACs (at a 10 μΜ concentration) for selected time points, respectively. Upon sample treatment, compounds were extracted and analyzed by LC-MS/MS. Table 1 presents the percentage of the molecule that enters the cells after 24 h incubation at the 10 μM concentration. […] The small molecule MYCi361, used as a binding domain component of MYC, was also evaluated in the cell uptake assay (Table 1).
Cells were plated in 24-well plates at a density of 2 × 10^5 cells/well. 24 h after seeding, cells were incubated with each PROTAC (10 μΜ) for certain time points (1 h, 4 h, 8 h, and 24 h). […] Samples were then reconstituted in 200 μL of initial mobile phase (100% A), and the intracellular accumulation of PROTACs was determined by LC-MS/MS analysis using Warfarin as a stable internal standard and PROTAC standards for the construction of analytical standard curves.
The percentage of cell uptake was calculated as follows: [drawing 1]

Data set [5] has as its target T1, c-MYC (Homo sapiens, UniProt P01106).
T1 construct: endogenous in cells; host or cells: PC3
As to the kind of experiment: MYC degradation in PC3 cells, Western blot. In kind it is cell-based. The method, then:
The ability of novel compounds to induce MYC degradation in the PC3 cell line was evaluated via a Western blot-based assay. […] A PROTAC that effectively degrades bromodomain and extra-terminal (BET) family proteins, with indirect action on MYC levels, BETd-260, was also included in these experiments as a positive control. BETd-260 was tested at a lower concentration (1 μΜ) due to its high potency.[26]
PC3 cells were used for the determination of MYC levels after treatment with the PROTACs under study. Cells (at a density of 250 000 per well) were seeded in 6-well plates for 24 h until 60% confluence. During the 24-h incubation period, cells were treated with the tested compounds (10 μΜ) and BETd-260 (1 μΜ) that was used as a positive control. For rescue experiments, cells were pretreated with the inhibitor MG-132 for 2 h, and then, the medium was removed, followed by the addition of the selected compound. After the 24-h incubation period, a cell lysis protocol was performed. The medium was removed, and the cells were rinsed with cold PBS. Lysis was induced using RIPA lysis buffer (50 mM Tris-HCl at pH 7.5, 150 mM NaCl, 5 mM Na2EDTA, 1 mM EGTA, 0.1% SDS, 1% NP-40, 0.5% sodium deoxycholate, 8 mM sodium fluoride, and 1 mM sodium orthovanadate) and protease inhibitor cocktail (Roche, UK). Total protein concentration in lysate samples was determined via performance of the Bradford assay in bovine serum albumin (BSA). Standard and unknown samples were preformulated in Coomassie blue G-250 assay reagent (Thermo Fisher Scientific, MA, USA), followed by a readout at 595 nm. Separation of the protein isolated from PC3 lysates, respectively (10 μg), with NuPAGE sample reducing agent and NuPAGE LDS sample buffer (Invitrogen, UK), was achieved via SDS-PAGE electrophoresis at 110 V for 2 h, prior to overnight transfer to the polyvinylidene difluoride (PVDF) membrane. The membranes were then blocked in 5% nonfat dry milk in Tris-buffered saline with 0.1% Tween-20 (TBST-T) for 1 h at room temperature.
Detection of MYC in PC3 cells was accomplished via immunoblot of the POI with the indicated monoclonal antibody (Cell Signaling Technology, MA, USA, catalog number #5605) at 1:1000 in TBST at […] overnight. The secondary anti-rabbit peroxidase-conjugate antibody (Cell Signaling Technology, MA, USA, catalog number #7074) was further added at 1:2000 dilution, followed by 1-h incubation at room temperature. Chemiluminescent visualization of the MYC protein bands was performed after the addition of Immobilon Crescendo Western HRP substrate (Sigma-Aldrich, Munich, Germany). For normalization of MYC concentration, GAPDH was labeled using the specific rabbit monoclonal antibody (Cell Signaling Technology, MA, USA, catalog number #5174) at 1:20000 in 5% nonfat dry milk. Protein bands were quantified with the ImageJ software.
Background: In western blotting, separated proteins are transferred to a membrane and probed.

Values joined by “and” are separate entries in the source; they are usually repeats but may differ in a detail not shown here. Equal values may be shown once.

As a reminder, the IC50 is the point on the concentration scale where inhibition reaches its midpoint.

T1 sequence (P01106 whole entry): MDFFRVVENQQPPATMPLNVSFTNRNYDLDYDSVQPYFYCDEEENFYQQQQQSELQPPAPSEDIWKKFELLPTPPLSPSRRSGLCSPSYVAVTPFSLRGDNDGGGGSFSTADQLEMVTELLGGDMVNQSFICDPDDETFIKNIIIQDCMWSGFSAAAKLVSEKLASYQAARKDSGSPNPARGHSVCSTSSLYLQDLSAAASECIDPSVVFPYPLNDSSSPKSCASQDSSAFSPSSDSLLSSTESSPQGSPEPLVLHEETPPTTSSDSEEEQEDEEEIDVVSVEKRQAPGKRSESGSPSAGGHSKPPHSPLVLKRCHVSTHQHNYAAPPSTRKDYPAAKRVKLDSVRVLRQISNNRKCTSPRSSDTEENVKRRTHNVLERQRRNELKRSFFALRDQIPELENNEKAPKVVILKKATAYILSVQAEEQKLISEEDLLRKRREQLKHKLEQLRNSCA

With `Cc1ncsc1-c1ccc(CNC(=O)[C@@H]2C[C@@H](O)CN2C(=O)[C@@H](NC(=O)CCC(=O)NCCCOc2ccc(-c3cc(C(F)(F)F)nn3C)c(O)c2-c2cc(C(F)(F)F)cc(C(F)(F)F)c2)C(C)(C)C)cc1` [CSI86], the “IC50 (antiproliferative effect)” value in data set [1] was “inactive”. Further, the IC50 was 13 to 18 µM in data set [2] and 15 ± 4 µM in data set [3]. Besides, in data set [4], the Uptake by cells was 10% and 10 ± 2%.
For the compound `Cc1ncsc1-c1ccc(CNC(=O)[C@@H]2C[C@@H](O)CN2C(=O)[C@@H](NC(=O)CCCC(=O)NCCCOc2ccc(-c3cc(C(F)(F)F)nn3C)c(O)c2-c2cc(C(F)(F)F)cc(C(F)(F)F)c2)C(C)(C)C)cc1` [CSI107], the IC50 in data set [2] was 13 to 18 µM; in data set [3], 14 ± 2 µM. For the same compound, the “dose dependence of MYC degradation” value in data set [5] (1–20 μΜ, 24 h) is recorded as “dose-dependent manner”. In data set [5] (10 μΜ, 3 h), the “c-MYC degradation after short treatment” value was “effectively mediated c-MYC degradation”. The “MYC degradation (MYC levels by Western blot)” value in data set [5] (10 μΜ, 24 h) is given as “significantly active”. The “MYC levels after pretreatment with proteasome inhibitor MG-132” value in data set [5] (MG-132 10 μΜ 2 h, then compound 10 μΜ 24 h, versus control group) is given as “no reduction in MYC levels”.
`Cc1ncsc1-c1ccc(CNC(=O)[C@@H]2C[C@@H](O)CN2C(=O)[C@@H](NC(=O)COCCOCC(=O)NCCCOc2ccc(-c3cc(C(F)(F)F)nn3C)c(O)c2-c2cc(C(F)(F)F)cc(C(F)(F)F)c2)C(C)(C)C)cc1` [CSI135]: the “MYC degradation (MYC levels by Western blot)” value in data set [5] (10 μΜ, 24 h) was “No particular effect”.
